Measured values from patent US9144241B2, “Synergistic pesticidal compositions and related methods” (Dow AgroSciences LLC, priority 2013, dated 2015).

Tested on: diamondback moth, Plutella xylostella
Experiment: Diamondback moth bioassay on track-sprayed cabbage plants/leaf discs; synergy by Colby's equation
Assay type: in vivo
Conditions: single active, second instar larvae, 400 L/Ha spray
Text: The method described in Colby S. R., “Calculating Synergistic and Antagonistic Responses of Herbicide Combinations,” Weeds, 1967, 15, 20-22 was used to determine an existence of synergic effect between the acetyl CoA carboxylase inhibitor compound and the pesticide (I), (II), or any agriculturally acceptable salt thereof in the formulated pesticidal composition.
Three second instar diamondback moth, Plutella xylostella, were infested onto each leaf disc. […] The “Colby's Expected Action” was calculated using Colby's equation as discussed previously.
Three second instar diamondback moth, Plutella xylostella, were infested onto each leaf disc.
The percent control may be determined some time after treatment.

| SMILES | % Control Three Days After Treatment (dose rate 0.000625 weight %) [%] | % Control Three Days After Treatment (dose rate 0.0025 weight %) | % Control Three Days After Treatment (dose rate 0.0015625 weight %) [%] | % Control Three Days After Treatment (dose rate 0.0015625 weight %, listed as spirotetramat) |
| --- | --- | --- | --- | --- |
| CCN(C(=O)CCSCCC(F)(F)F)c1cn(-c2cccnc2)nc1Cl [Compound I, N-(3-chloro-1-(pyridin-3-yl)-1H-pyrazol-4-yl)-N-ethyl-3-((3,3,3-trifluoropropyl)thio) propanamide] | 0 | no activity | – | – |
| CCN(C(=O)CC[S+]([O-])CCC(F)(F)F)c1cn(-c2cccnc2)nc1Cl (centres unmarked) [Compound II, N-(3-chloro-1-(pyridin-3-yl)-1H-pyrazol-4-yl)-N-ethyl-3-((3,3,3-trifluoropropyl)sulfinyl)propanamide] | 0 | – | – | – |
| CCOC(=O)OC1=C(c2cc(C)ccc2C)C(=O)N[C@]12CC[C@@H](OC)CC2 [Spirotetramat, cis-3-(2,5-dimethylphenyl)-8-methoxy-2-oxo-1-azaspiro[4.5]dec-3-en-4-yl ethylcarbonate, reference compound] | – | – | 0 | no activity |
